Measurements reported in patent publication US20260231994A1, “TASTE-ENHANCING COMPOSITION, METHOD FOR PRODUCING SAME, FOOD PRODUCT, AND METHOD FOR ENHANCING TASTE OF FOOD PRODUCT” (HOUSE FOODS GROUP INC., priority 2023, published 2026).

Key:
Assay type in all cases: in vivo
[1] = Experiment 6 sensory evaluation of cyclic dipeptides, “boosting of last flavor (aftertaste)”
How it was run: (§1)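 Reduced-sodium curry roux (44 g in 300 g hot water) was spiked with cyclic dipeptide solutions matching heat-treated coriander or paprika levels, at 0.5% or 1.0% (w/w) final. Three evaluators scored each sample against unspiked reduced-sodium and common roux. Mean scores were graded F to AA.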

[2] = Experiment 6 sensory evaluation of cyclic dipeptides, “top sharp saltiness”
How it was run: as §1

[3] = Experiment 1 sensory evaluation of “boosting of flavor” (cyclic dipeptides, coriander); conditions: for “boosting of flavor” Average: cyclic dipeptide aqueous solution (concentration as in heat-treated coriander) at final 0.2% (w/w) in reduced-sodium curry roux dispersion, score 1-5; for “boosting of flavor” Evaluation: cyclic dipeptide aqueous solution at final 0.2% (w/w) in reduced-sodium curry roux dispersion, class of average score; for “boosting of flavor” in words: added to reduced-sodium curry roux dispersion, compared with no addition, unheated coriander or common curry roux
Description: Flour roux was prepared by putting 20 g of flour and 30 g of beef tallow in a pan, then heating with stirring at 120° C. To this flour roux were added 10 g of sodium chloride, 10 g of sugar, 10 g of cornstarch, 5 g of curry powder and 15 g of other seasoning ingredients (vegetable and fruit extracts, yeast extract and seafood extract), and after heat-treatment to 105° C., the mixture was cooled and solidified, to form a block of common curry roux.
The sodium chloride equivalent per 100 g of this curry roux was 10.6 g.
Reduced-sodium curry roux was prepared according to the same procedure, except that the amount of sodium chloride was reduced to 7 g from the amount in the common curry roux in (1).
The sodium chloride equivalent per 100 g of this reduced-sodium curry roux was 7.7 g.
Out of the cyclic dipeptides included in the heat-treated coriander prepared in 1.1. described above, which were confirmed to be increased in 1.2. above, an aqueous solution of the respective 14 cyclic dipeptides shown in the table described below was prepared. The concentration of the cyclic dipeptide in each aqueous solution was set to be equal to its concentration in the heat-treated coriander prepared in 1.1. described above, which was estimated from the ratio of the peak area of the cyclic dipeptide to the peak area of the internal standard (47 μg/g L-lysine-^13C6 monohydrochloride) confirmed in 1.2. described above.
Two dispersions of 44 g of the reduced-sodium curry roux in (2) dispersed in 300 g of hot water were prepared.
To one of them was added the heat-treated coriander or the powdered unheated coriander prepared in 1.1. described above, or the cyclic dipeptide aqueous solution (corresponding to the heat-treated coriander) prepared in (3) above, so that the final concentration was 0.2% (w/w), and a sensory evaluation was carried out.
Forty-four grams of the common curry roux in (1) was dispersed in 300 g of hot water.
The dispersion of reduced-sodium curry roux dispersed in hot water and the dispersion of common curry roux dispersed in hot water were used as comparative controls, and the strength of the flavor was evaluated by four evaluators on the basis of the following evaluation criteria from the viewpoint of “boosting of flavor.” The term “boosting of flavor” in this experiment is an effect concerted by the combination of sodium chloride and other foodstuffs in curry roux, and is an aspect of “saltiness.” Thus, the “flavor” in this experiment can be also expressed as “saltiness.”
The average of the evaluated scores was defined as “F” when it was 1.0 or lower, “C” when it was 1.1 or higher and 1.9 or lower, “B” when it was 2.0 or higher and 2.5 or lower, “A” when it was 2.6 or higher and 2.9 or lower, and “AA” when it was 3.0 or higher.

[4] = Experiment 6 sensory evaluation of cyclic dipeptides, “middle fullness (enhanced thickness)”
How it was run: as §1

[5] = Additive amount paprika 0.5%, reduced-sodium curry roux
[6] = heat-treated paprika equivalent aqueous solution of cyclic dipeptide, final 1.0% (w/w) in reduced-sodium curry roux dispersion
[7] = heat-treated paprika equivalent aqueous solution of cyclic dipeptide, final 1.0% (w/w) in reduced-sodium curry roux dispersion, 3 evaluators
[8] = Additive amount paprika 0.5% (heat-treated paprika equivalent aqueous solution, final 0.5% (w/w)), reduced-sodium curry roux
[9] = Additive amount coriander 0.5%, reduced-sodium curry roux
[10] = heat-treated coriander equivalent aqueous solution of cyclic dipeptide, final 1.0% (w/w) in reduced-sodium curry roux dispersion
[11] = heat-treated coriander equivalent aqueous solution of cyclic dipeptide, final 1.0% (w/w) in reduced-sodium curry roux dispersion, 3 evaluators
[12] = Additive amount coriander 0.5% (heat-treated coriander equivalent aqueous solution, final 0.5% (w/w)), reduced-sodium curry roux

Substance | Bosting of last flavor Average [1, 5] [points] | Bosting of last flavor Evaluation [1, 5] | Bosting of last flavor Evaluation [1, 6] | Bosting of last flavor Average [1, 7] [points] | Top sharp saltiness Average [2, 8] [points] | Top sharp saltiness Evaluation [2, 5] | “boosting of flavor” Average [3] [points] | “boosting of flavor” Evaluation [3] | Bosting of last flavor Average [1, 9] [points] | Bosting of last flavor Evaluation [1, 9] | Bosting of last flavor Evaluation [1, 10] | Bosting of last flavor Average [1, 11] [points] | Top sharp saltiness Average [2, 12] [points] | Top sharp saltiness Evaluation [2, 9] | Top sharp saltiness Evaluation [2, 10] | Top sharp saltiness Average [2, 11] [points] | Middle fullness Average [4, 9] [points] | Middle fullness Evaluation [4, 9] | Middle fullness Evaluation [4, 10] | Middle fullness Average [4, 11] [points] | also measured
cyclic (Gly-Val) [Coriander ID 21] | 2.5 | B (“B” when it was 2.0 or higher and 2.5 or lower) | B (“B” when it was 2.0 or higher and 2.5 or lower) | 2.2 | 2.3 | B (“B” when it was 2.0 or higher and 2.5 or lower) | 2.3 | B (“B” when it was 2.0 or higher and 2.5 or lower) |  |  |  |  |  |  |  |  |  |  |  |  | Top sharp saltiness Evaluation [2, 6]: C (“C” when it was 1.1 or higher and 1.9 or lower); Top sharp saltiness Average [2, 7]: 1.7 points; Middle fullness Average [4, 5]: 2.3 points; Middle fullness Evaluation [4, 5]: B (“B” when it was 2.0 or higher and 2.5 or lower); Middle fullness Evaluation [4, 6]: B (“B” when it was 2.0 or higher and 2.5 or lower); Middle fullness Average [4, 7]: 2.0 points
cyclic (Leu/Ile-Val) [Coriander ID 42] |  |  |  |  |  |  | 2.0 | B (“B” when it was 2.0 or higher and 2.5 or lower) | 3.0 | AA (“AA” when it was 3.0 or higher) | A (“A” when it was 2.6 or higher and 2.9 or lower) | 2.7 | 2.5 | B (“B” when it was 2.0 or higher and 2.5 or lower) | B (“B” when it was 2.0 or higher and 2.5 or lower) | 2.0 | 2.8 | A (“A” when it was 2.6 or higher and 2.9 or lower) | A (“A” when it was 2.6 or higher and 2.9 or lower) | 2.7 | 
cyclic (Phe-Ala) [Coriander ID 33] |  |  |  |  |  |  | 3.0 | AA (“AA” when it was 3.0 or higher) | 2.5 | B (“B” when it was 2.0 or higher and 2.5 or lower) | B (“B” when it was 2.0 or higher and 2.5 or lower) | 2.5 | 2.3 | B (“B” when it was 2.0 or higher and 2.5 or lower) | B (“B” when it was 2.0 or higher and 2.5 or lower) | 2.0 | 2.5 | B (“B” when it was 2.0 or higher and 2.5 or lower) | B (“B” when it was 2.0 or higher and 2.5 or lower) | 2.5 | “boosting of flavor” in words [3]: comparable flavor to that of the dispersion of common curry roux
cyclic (Phe-Pro) [Coriander ID 40] | 2.3 | B (“B” when it was 2.0 or higher and 2.5 or lower) | AA (“AA” when it was 3.0 or higher) | 3.0 | 2.5 | B (“B” when it was 2.0 or higher and 2.5 or lower) | 2.8 | A (“A” when it was 2.6 or higher and 2.9 or lower) |  |  |  |  |  |  |  |  |  |  |  |  | Top sharp saltiness Evaluation [2, 6]: A (“A” when it was 2.6 or higher and 2.9 or lower); Top sharp saltiness Average [2, 7]: 2.7 points; Middle fullness Average [4, 5]: 2.3 points; Middle fullness Evaluation [4, 5]: B (“B” when it was 2.0 or higher and 2.5 or lower); Middle fullness Evaluation [4, 6]: AA (“AA” when it was 3.0 or higher); Middle fullness Average [4, 7]: 3.2 points
cyclic (Pro-His) [Coriander ID 15] |  |  |  |  |  |  | 3.0 | AA (“AA” when it was 3.0 or higher) | 2.5 | B (“B” when it was 2.0 or higher and 2.5 or lower) | AA (“AA” when it was 3.0 or higher) | 3.0 | 2.2 | B (“B” when it was 2.0 or higher and 2.5 or lower) | B (“B” when it was 2.0 or higher and 2.5 or lower) | 2.0 | 2.5 | B (“B” when it was 2.0 or higher and 2.5 or lower) | AA (“AA” when it was 3.0 or higher) | 3.0 | “boosting of flavor” in words [3]: comparable flavor to that of the dispersion of common curry roux
cyclic (Pro-Met) [Coriander ID 53] |  |  |  |  |  |  | 2.3 | B (“B” when it was 2.0 or higher and 2.5 or lower) | 3.0 | AA (“AA” when it was 3.0 or higher) | AA (“AA” when it was 3.0 or higher) | 3.8 | 3.0 | AA (“AA” when it was 3.0 or higher) | AA (“AA” when it was 3.0 or higher) | 3.0 | 3.2 | AA (“AA” when it was 3.0 or higher) | AA (“AA” when it was 3.0 or higher) | 3.0 | 
